Reference: ChEMBL document CHEMBL1122409, “Estrogen receptor binding and estrogenic/antiestrogenic effects of two new metabolites of nitromiphene, 2-[p-[2-nitro-1-(4-methoxyphenyl)-2-phenylvinyl]phenoxy]-N-ethylpyrrolidine” (J Med Chem, 1983)
Each block holds one compound with its values, some of them ahead of it. Calls of active or inactive are those of the source. The rule behind the calls is not given here.

Columns and labels:
[1] = target: T1, Estrogen receptor (Rattus norvegicus) (UniProt P06211+Q62986); test: Displacement of [3H]estradiol from rat estrogen receptor; inactive; assay type: protein assay
[2] = target: T1, Estrogen receptor (Rattus norvegicus); test: Antagonistic effect against estradiol benzoate induced uterine weight gain in immature rats at 1E-6M; increased estrogenic activity; assay type: functional; parameters: scale not given: the % may be the effect or the level left
[3] = target: T1, Estrogen receptor (Rattus norvegicus); test: Displacement of [3H]estradiol from rat estrogen receptor; increased estrogenic activity; assay type: protein assay
[4] = target: T1, Estrogen receptor (Rattus norvegicus); test: Displacement of [3H]estradiol from rat estrogen receptor; modest estrogenic activity; assay type: protein assay
[5] = target: T1, Estrogen receptor (Rattus norvegicus); test: Antagonistic effect on estradiol benzoate induced uterine weight gain in immature rats at 1E-6M; assay type: functional; parameters: scale not given: the % may be the effect or the level left

Activity [1]: inactive
Compound: COc1ccc(C(C(=O)c2ccccc2)c2ccc(OCCN3CCCC3)cc2)cc1 (stereo not given)

Activity [2]: 43%
Activity [3]: Active
Compound: COc1ccc(/C(=C(/c2ccccc2)[N+](=O)[O-])c2ccc(OCCN3CCCC3=O)cc2)cc1

Activity [4]: Weak activity
Activity [5]: 11%
Compound: COc1ccc(/C(=C(/c2ccccc2)[N+](=O)[O-])c2ccc(OCCN3CCCC3)cc2)cc1
